# Experimental data as given in US9586963B2 (GENFIT, priority 2011, dated 2017).
# Structures can show the parent of a compound that is named as a salt.
# Legend:
# [1] = target: T1, Rev-Erb alpha (Homo sapiens, UniProt P20393); assay: M2H (mammalian two-hybrid) cellular activation assay of Rev-Erb alpha; type: cell-based; conditions: for EC50: M2H assay, HEK293 cells, Gal4-Rev-Erb alpha / VP16-NCoR, luciferase reporter
# T1 sequence (P20393 284-614 limits assumed): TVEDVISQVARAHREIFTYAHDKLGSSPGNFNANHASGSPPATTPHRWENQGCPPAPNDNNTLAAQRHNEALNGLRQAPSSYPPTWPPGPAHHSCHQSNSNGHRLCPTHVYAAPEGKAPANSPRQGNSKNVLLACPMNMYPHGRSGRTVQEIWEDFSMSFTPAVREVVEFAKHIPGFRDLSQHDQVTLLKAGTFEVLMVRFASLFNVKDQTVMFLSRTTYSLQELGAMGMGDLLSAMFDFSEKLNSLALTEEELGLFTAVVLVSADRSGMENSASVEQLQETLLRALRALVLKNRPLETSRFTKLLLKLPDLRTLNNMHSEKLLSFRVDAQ
# How it was run: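 Six-point dose-response, 18 h, 37 °C, serum-free, in HEK293 cells carrying a Gal4-RE luciferase reporter with Gal4-Rev-Erb alpha or beta plus VP16-NCoR (corepressor interaction readout). EC50 and TOP activation (%) derived from luminescence across four experiments.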
SMILES,melting point [°C],EC50 [1] [nM],"Emax ([1]; HEK293, read-out: TOP activation) [%]"
"NCc1ccc(-c2ccccc2)c(Oc2ccc3nnc(Cl)n3n2)c1 (as salt: sodium) [Cpd.4-65, 3-chloro-6-(4-aminomethyl-biphenyl-2-yloxy)-[1,2,4]triazolo[4,3-b]pyridazine]",164.6 to 167.7,,
"OCc1ccc(Oc2ccc3nnc(Cl)n3n2)c(-c2ccccc2)c1 (as salt: sodium) [Cpd.4-66, 3-chloro-6-(5-hydroxymethyl-biphenyl-2-yloxy)-[1,2,4]triazolo[4,3-b]pyridazine]",72,,
"COC(=O)c1ccc(Oc2ccc3nnc(Cl)n3n2)c(-c2ccccc2)c1 (as salt: sodium) [Cpd.4-69, 3-chloro-6-(5-methyloxycarbonyl-biphenyl-2-yloxy)-[1,2,4]triazolo[4,3-b]pyridazine]",75.9 to 78.8,,
"COc1cccc(-c2cc(F)ccc2Oc2ccc3nnc(Cl)n3n2)c1 (as salt: sodium) [Cpd.4-76, 3-chloro-6-(5-fluoro-3′ methoxy-biphenyl-2-yloxy)-[1,2,4]triazolo[4,3-b]pyridazine]",91.3 to 93.4,,
"COc1ccccc1-c1cccc(Oc2ccc3nnc(Cl)n3n2)c1 [Cpd.3-8, 6-(2′-methoxy-biphenyl-3-yloxy)-3-chloro-[1,2,4]triazolo[4,3-b]pyridazine]",82.5,1000 to 6000,
"Fc1ccc(-c2cccc(Oc3ccc4nnc(Cl)n4n3)c2)cc1 [Cpd.3-9, 6-(4′-fluoro-biphenyl-3-yloxy)-3-chloro-[1,2,4]triazolo[4,3-b]pyridazine]",88,100 to 1000,
"Fc1ccccc1-c1cccc(Oc2ccc3nnc(Cl)n3n2)c1 [Cpd.3-10, 6-(2′-fluoro-biphenyl-3-yloxy)-3-chloro-[1,2,4]triazolo[4,3-b]pyridazine]",128.6,100 to 1000,
"Clc1ccccc1-c1cccc(Oc2ccc3nnc(Cl)n3n2)c1 [Cpd.3-11, 6-(2′-chloro-biphenyl-3-yloxy)-3-chloro-[1,2,4]triazolo[4,3-b]pyridazine]",82.4,1000 to 6000,
"Clc1ccc(-c2cccc(Oc3ccc4nnc(Cl)n4n3)c2)cc1 [Cpd.3-12, 6-(4′-chloro-biphenyl-3-yloxy)-3-chloro-[1,2,4]triazolo[4,3-b]pyridazine]",128,1000 to 6000,
"Clc1cccc(-c2cccc(Oc3ccc4nnc(Cl)n4n3)c2)c1 [Cpd.3-13, 3-chloro-6-(3′-chlorobiphenyl-3-yloxy)-[1,2,4]triazolo[4,3-b]pyridazine]",77.5 to 123.8,100 to 1000,
"COc1cccc(-c2cccc(Oc3ccc4nnc(Cl)n4n3)c2)c1 [Cpd.3-14, 3-chloro-6-(3′-methoxybiphenyl-3-yloxy)-[1,2,4]triazolo[4,3-b]pyridazine]",91.46,1000 to 6000,
"O=C(O)c1ccc(Oc2ccc3nnc(Cl)n3n2)c(-c2ccccc2)c1 [Cpd.4-59, 3-chloro-6-(5-hydroxycarbonyl-biphenyl-2-yloxy)-[1,2,4]triazolo[4,3-b]pyridazine]",266.9 to 267.7,,
"CNC(Cc1ccccc1)c1ccc(Oc2ccc3nnc(Cl)n3n2)c(-c2ccccc2)c1 (stereo not shown) [Cpd.4-158, 3-chloro-6-(5-(benzylmethylaminomethyl)biphenyl-2-yloxy)-[1,2,4]triazolo[4,3-b]pyridazine]",60.8 to 62.5,,
"CC(NCCc1ccccc1)c1ccc(Oc2ccc3nnc(Cl)n3n2)c(-c2ccccc2)c1 (stereo not shown) [Cpd.4-165, 3-chloro-6-(5-(methylphenethylaminomethyl)biphenyl-2-yloxy)-[1,2,4]triazolo[4,3-b]pyridazine]",114.3 to 117,,
"CC(NC1CCCCC1)c1ccc(Oc2ccc3nnc(Cl)n3n2)c(-c2ccccc2)c1 (stereo not shown) [Cpd.4-167, 3-chloro-6-(5-(methyl-cyclohexylaminomethyl)biphenyl-2-yloxy)-[1,2,4]triazolo[4,3-b]pyridazine]",50.6,,
"Cc1nc(-c2ccc(Oc3nn4c(Cl)nnc4cc3C)c(-c3ccccc3)c2)no1 [Cpd.5-65, 3-chloro-7-methyl-6-(4-(5-methyl-1,2,4-oxadiazol-3-yl)-2-(phenyl)phenoxy)-[1,2,4]triazolo[4,3-b]pyridazine]",,1000 to 6000,
Fc1ccc(Oc2ccc3nnc(Cl)n3n2)c(-c2cccc(CN3CCCCC3)c2)c1 [hydrochloride],,> 6000,> 130

# Now from value to molecule, other results behind:
melting point [°C],EC50 [1] [nM],SMILES,"Emax ([1]; HEK293, read-out: TOP activation) [%]"
171 to 173,,"FC(F)(F)c1ccc(-c2nccs2)c(Oc2ccc3nnc(Cl)n3n2)c1 (as salt: potassium) [Cpd.4-105, 3-chloro-6-(2-(thiazol-2-yl)-5-(trifluoromethyl)phenoxy)-[1,2,4]triazolo[4,3-b]pyridazine]",
191 to 192,,"FC(F)(F)c1ccc(-c2cscn2)c(Oc2ccc3nnc(Cl)n3n2)c1 (as salt: potassium) [Cpd.4-106, 3-chloro-6-(2-(thiazol-4-yl)-5-(trifluoromethyl)phenoxy)-[1,2,4]triazolo[4,3-b]pyridazine]",
217.7 to 220,,"NC(=O)c1cccc(-c2ccc(C(F)(F)F)cc2Oc2ccc3nnc(Cl)n3n2)c1 (as salt: sodium) [Cpd.4-72, 3-chloro-6-(4-trifluoromethyl-3′-aminocarbonyl-biphenyl-2-yloxy)-[1,2,4]triazolo[4,3-b]pyridazine]",
162 to 164,,"FC(F)(F)c1ccc(-c2ccccc2)c(Oc2cc(-c3ccccc3)c3nnc(Cl)n3n2)c1 [Cpd.5-4, 3-chloro-8-phenyl-6-(4-trifluoromethyl-biphenyl-2-yloxy)-[1,2,4]triazolo[4,3-b]pyridazine]",
130 to 133,,"FC(F)(F)c1ccc(-c2ccccc2)c(Oc2nn3c(Cl)nnc3cc2C2CC2)c1 [Cpd.5-14, 3-chloro-7-cyclopropyl-6-(4-trifluoromethyl-biphenyl-2-yloxy)-[1,2,4]triazolo[4,3-b]pyridazine]",
,1000 to 6000,"Cc1cc(Oc2cc(C(F)(F)F)ccc2-c2cncnc2)nn2c(Cl)nnc12 [Cpd.5-30, 3-chloro-8-methyl-6-(2-(pyrimidin-5-yl)-5-(trifluoromethyl)phenoxy)-[1,2,4]triazolo[4,3-b]pyridazine]",
,1000 to 6000,"Cc1cc2nnc(Cl)n2nc1Oc1c(-c2cncnc2)ccc(C(F)(F)F)c1F [Cpd.5-31, 3-chloro-6-(2-fluoro-6-(pyrimidin-5-yl)-3-(trifluoromethyl)phenoxy)-7-methyl-[1,2,4]triazolo[4,3-b]pyridazine]",
,100 to 1000,"COc1ncc(-c2ccc(C(F)(F)F)cc2Oc2cc(C)c3nnc(Cl)n3n2)cn1 [Cpd.5-34, 3-chloro-8-methyl-6-((2-(2-methoxypyrimidin-5-yl))-5-(trifluoromethyl)phenoxy)-[1,2,4]triazolo[4,3-b]pyridazine]",
,1000 to 6000,"COc1ncc(-c2ccc(C(F)(F)F)cc2Oc2nn3c(Cl)nnc3cc2C)cn1 [Cpd.5-35, 3-chloro-7-methyl-6-((2-(2-methoxypyrimidin-5-yl))-5-(trifluoromethyl)phenoxy)-[1,2,4]triazolo[4,3-b]pyridazine]",
,100 to 1000,"COc1ncc(-c2ccc(C(F)(F)F)cc2Oc2nn3c(Cl)nnc3c3ccccc23)cn1 [Cpd.5-36, 3-chloro-6-((2-(2-methoxypyrimidin-5-yl))-5-(trifluoromethyl)phenoxy)-[1,2,4]triazolo[3,4-a]phthalazine]",
,1000 to 6000,"Cc1cc(Oc2cc(C(F)(F)F)ccc2-c2cncnc2C(C)C)nn2c(Cl)nnc12 [Cpd.5-38, 3-chloro-8-methyl-6-((2-(4-isopropylpyrimidin-5-yl))-5-(trifluoromethyl)phenoxy)-[1,2,4]triazolo[4,3-b]pyridazine]",
,1000 to 6000,"Cc1cc(Oc2cccc(C(F)(F)F)c2-c2cncnc2)nn2c(Cl)nnc12 [Cpd.5-42, 3-chloro-8-methyl-6-(2-(pyrimidin-5-yl)-3-(trifluoromethyl)phenoxy)-[1,2,4]triazolo[4,3-b]pyridazine]",
,1000 to 6000,"Cc1ncncc1-c1ccc(C(F)(F)F)cc1Oc1cc(C)c2nnc(Cl)n2n1 [Cpd.5-45, 3-chloro-8-methyl-6-(2-(4-methylpyrimidin-5-yl)-5-(trifluoromethyl)phenoxy)-[1,2,4]triazolo[4,3-b]pyridazine]",
,1000 to 6000,"Cc1cc2nnc(Cl)n2nc1Oc1cc(C(F)(F)F)ccc1-c1cncnc1C [Cpd.5-47, 3-chloro-7-methyl-6-(2-(4-methylpyrimidin-5-yl)-5-(trifluoromethyl)phenoxy)-[1,2,4]triazolo[4,3-b]pyridazine]",
,1000 to 6000,"COc1ncc(-c2ccc(C(F)(F)F)cc2Oc2cc(C)c3nnc(Cl)n3n2)c(OC)n1 [Cpd.5-50, 3-chloro-6-(2-(2,4-dimethoxypyrimidin-5-yl)-5-(trifluoromethyl)phenoxy)-8-methyl-[1,2,4]triazolo[4,3-b]pyridazine]",
,1000 to 6000,"COc1ncc(-c2ccc(C(F)(F)F)cc2Oc2nn3c(Cl)nnc3cc2C)c(OC)n1 [Cpd.5-51, 3-chloro-6-(2-(2,4-dimethoxypyrimidin-5-yl)-5-(trifluoromethyl)phenoxy)-7-methyl-[1,2,4]triazolo[4,3-b]pyridazine]",
,1000 to 6000,"CCc1ncncc1-c1ccc(C(F)(F)F)cc1Oc1nn2c(Cl)nnc2cc1C [Cpd.5-52, 3-chloro-6-(2-(4-ethylpyrimidin-5-yl)-5-(trifluoromethyl)phenoxy)-7-methyl-[1,2,4]triazolo[4,3-b]pyridazine]",
,1000 to 6000,"CCc1ncncc1-c1ccc(C(F)(F)F)cc1Oc1cc(C)c2nnc(Cl)n2n1 [Cpd.5-53, 3-chloro-6-(2-(4-ethylpyrimidin-5-yl)-5-(trifluoromethyl)phenoxy)-8-methyl-[1,2,4]triazolo[4,3-b]pyridazine]",
